Assay results reported in patent US7902181B2, “Compounds 010” (AstraZeneca AB, priority 2007, dated 2011).
Where a name gives a salt, the structure may show the parent alone.

Molecular target: Recombinant Human (rh) DPP1 (Homo sapiens, UniProt P53634)
Assay: Fluorescence Assay for Recombinant Human (rh) DPP1
Type: biochemical
Details: rhDPP1; substrate H-Gly-Arg-AMC; pH5.0; 30 min pre-incubation, 60 min reaction at 22° C.; highest concentration 10 μM; read-out: DPP1 activity, pIC50 (converted)
Method: Fluorescence Assay for Recombinant Human (rh) DPP1
The activity of DPP1 was determined by measuring the enzymatic release of aminomethyl coumarin (AMC) from the peptide substrate (H-Gly-Arg-AMC), which leads to an increase in fluorescence intensity at λex=350 nm and λem=450 nm. The assay was carried out in black 384 well plates in a final volume of 50 μl at 22° C. The assay conditions contained the following: 25 mM piperazine buffer pH5.0; 50 mM NaCl, 5 mM DTT; 0.01% (v/v) Triton X-100; 100 μM H-Gly-Arg-AMC and rhDPP1 ([…]). Potential inhibitors were made up in DMSO and then diluted in the assay to give a final concentration of 1% (v/v) DMSO. A 12-point half-log dilution of the inhibitors (highest concentration 10 μM) was tested and the pIC50 determined using a 4-parameter logistic equation in a non-linear curve fitting routine. A standard DPP1 inhibitor (vinyl sulfone, see below) was used as a positive control in the assay. Routinely, inhibitors were pre-incubated with rhDPP1 for 30 min prior to the addition of the peptide substrate to start the reaction for a further 60 min at 22° C. After that the plates were immediately read in a fluorescence plate reader using the above emission and excitation wavelengths [modified from Kam, C M, Gotz, M G, Koot, G, McGuire, M J, Thiele, D L, Hudig, D & Powers, J C (2004). Arch Biochem Biophys, 427, 123-134 & McGuire, M J, Lipsky, P E & Thiele, D L (1992). Arch Biochem Biophys, 295, 280-288].

Recombinant Human (rh) DPP1, sequence (P53634 25-463): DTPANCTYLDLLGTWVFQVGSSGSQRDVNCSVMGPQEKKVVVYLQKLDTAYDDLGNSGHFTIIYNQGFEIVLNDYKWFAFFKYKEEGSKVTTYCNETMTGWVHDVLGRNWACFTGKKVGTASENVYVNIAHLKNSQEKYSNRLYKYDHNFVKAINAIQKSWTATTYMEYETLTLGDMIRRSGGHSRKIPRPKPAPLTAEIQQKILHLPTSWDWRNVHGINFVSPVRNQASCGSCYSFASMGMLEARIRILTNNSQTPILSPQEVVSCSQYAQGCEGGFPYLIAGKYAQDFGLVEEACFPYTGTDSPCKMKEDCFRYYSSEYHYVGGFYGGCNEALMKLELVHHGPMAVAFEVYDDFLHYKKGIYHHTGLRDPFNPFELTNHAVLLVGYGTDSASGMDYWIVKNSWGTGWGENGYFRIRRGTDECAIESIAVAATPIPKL

SMILES	IC50 [nM]
N#C[C@H](Cc1ccc(-c2cccc(Cl)c2)cc1)NC(=O)[C@@H]1CCCCN1 [Example 1, (S)-N-((S)-2-(3′-Chlorobiphenyl-4-yl)-1-cyanoethyl)piperidine-2-carboxamide Trifluoroacetate]	63.1
N#C[C@H](Cc1ccc(-c2cccc(CN3CCCCC3)c2)cc1)NC(=O)[C@@H]1CCCCN1 [Example 2, (S)-N-((S)-1-Cyano-2-(3′-(piperidin-1-ylmethyl)biphenyl-4-yl)ethyl)piperidine-2-carboxamide di-trifluoroacetate]	79.4
N#C[C@H](Cc1ccc(-c2ccccc2)cc1)NC(=O)[C@@H]1CCCN1 [Example 3, (S)-N-((S)-2-(Biphenyl-4-yl)-1-cyanoethyl)pyrrolidine-2-carboxamide]	316
N#C[C@H](Cc1ccc(-c2cnn(Cc3ccccc3)c2)cc1)NC(=O)[C@@H]1CCCCN1 [Example 4, (S)-N-((S)-2-(4-(1-Benzyl-1H-pyrazol-4-yl)phenyl)-1-cyanoethyl)-piperidine-2-carboxamide Trifluoroacetate]	31.6
N#C[C@H](Cc1ccc(-c2ccc(C(N)=O)cc2)cc1)NC(=O)[C@@H]1CCCCN1 [Example 5, (S)-N-((S)-2-(4′-Carbamoylbiphenyl-4-yl)-1-cyanoethyl)piperidine-2-carboxamide Trifluoroacetate]	63.1
N#Cc1cccc(-c2ccc(C[C@@H](C#N)NC(=O)[C@@H]3CCCCN3)cc2)c1 [Example 6, (S)-N-((S)-1-Cyano-2-(3′-cyanobiphenyl-4-yl)ethyl)piperidine-2-carboxamide Trifluoroacetate]	63.1
N#C[C@H](Cc1ccc(-c2cccc(CN)c2)cc1)NC(=O)[C@@H]1CCCCN1 [Example 7, (S)-N-((S)-2-(3′-(Aminomethyl)biphenyl-4-yl)-1-cyanoethyl)piperidine-2-carboxamide Ditrifluoroacetate]	100
CC(=O)Nc1cccc(-c2ccc(C[C@@H](C#N)NC(=O)[C@@H]3CCCCN3)cc2)c1 [Example 8, (S)-N-((S)-2-(3′-Acetamidobiphenyl-4-yl)-1-cyanoethyl)piperidine-2-carboxamide Trifluoroacetate]	126
N#C[C@H](Cc1ccc(-c2ccc(CN3CCOCC3)cc2)cc1)NC(=O)[C@@H]1CCCCN1 [Example 9, (S)-N-((S)-1-Cyano-2-(4′-(morpholinomethyl)biphenyl-4-yl)ethyl)piperidine-2-carboxamide Trifluoroacetate]	158
N#C[C@H](Cc1ccc(-c2cccnc2)cc1)NC(=O)[C@@H]1CCCCN1 [Example 10, (S)-N-((S)-1-Cyano-2-(4-(pyridin-3-yl)phenyl)ethyl)piperidine-2-carboxamide Trifluoroacetate]	251
Cc1cc(O)ccc1-c1ccc(C[C@@H](C#N)NC(=O)[C@@H]2CCCCN2)cc1 [Example 11, (S)-N-((S)-1-Cyano-2-(4′-hydroxy-2′-methylbiphenyl-4-yl)ethyl)piperidine-2-carboxamide Trifluoroacetate]	316
N#C[C@H](Cc1ccc(-c2cccc(C(=O)O)c2)cc1)NC(=O)[C@@H]1CCCCN1 [Example 12, 4′-((S)-2-Cyano-2-((S)-piperidine-2-carboxamido)ethyl)biphenyl-3-carboxylic Acid Trifluoroacetate]	398
N#C[C@H](Cc1ccc(-c2ccccc2O[C@@H]2CCNC2)cc1)NC(=O)[C@@H]1CCCCN1 [Example 13, (S)-N-((S)-1-Cyano-2-(2′-((R)-pyrrolidin-3-yloxy)biphenyl-4-yl)ethyl)piperidine-2-carboxamide Ditrifluoroacetate]	794
N#C[C@H](Cc1ccc(-c2cc3ccccc3[nH]2)cc1)NC(=O)[C@@H]1CCCCN1 [Example 14, (S)-N-((S)-2-(4-(1H-Indol-2-yl)phenyl)-1-cyanoethyl)piperidine-2-carboxamide Trifluoroacetate]	7.94
COc1cccc(-c2ccc(C[C@@H](C#N)NC(=O)[C@@H]3CCCCN3)cc2)c1 [Example 15, (2S)-N-[(1S)-1-Cyano-2-(3′-methoxybiphenyl-4-yl)ethyl]piperidine-2-carboxamide Trifluoroacetate]	100

Further lines, results first:

IC50 [nM]	SMILES
794	CN(C)C(=O)c1cc(Cl)cc(-c2ccc(CC(C#N)NC(=O)[C@@H]3CCCCN3)cn2)c1 (mixture of isomers) [Example 81, (S)-N-((S)-2-(6-(3-Chloro-5-(dimethylcarbamoyl)phenyl)pyridin-3-yl)-1-cyanoethyl)piperidine-2-carboxamide Trifluoroacetate]
15.8	N#CC(Cc1ccc(-c2ccc(S(=O)(=O)N3CCOCC3)cc2)cc1)NC(=O)[C@@H]1CCCCN1 (mixture of isomers) [Example 94, (S)-N-((S)-1-Cyano-2-(4′-(morpholinosulfonyl)biphenyl-4-yl)ethyl)piperidine-2-carboxamide Trifluoroacetate]
126	N#C[C@H](Cc1ccc(-c2ccccc2)cc1)NC(=O)[C@@H]1CCCCN1 [Example 16, Piperidine-2-carboxylic acid (2-biphenyl-4-yl-1-cyano-ethyl)-amide]
200	N#C[C@H](Cc1ccc(-c2ccccc2)cc1)NC(=O)[C@@H]1C[C@@H](O)CN1 [Example 17, (2S,4R)-N-((S)-2-(Biphenyl-4-yl)-1-cyanoethyl)-4-hydroxypyrrolidine-2-carboxamide]
200	N#Cc1cccc(-c2ccc(C[C@@H](C#N)NC(=O)[C@@H]3CCN3)cc2)c1 [Example 19, (S)-N-((S)-1-Cyano-2-(3′-cyanobiphenyl-4-yl)ethyl)azetidine-2-carboxamide]
25.1	CN(C)S(=O)(=O)c1ccc(-c2ccc(C[C@@H](C#N)NC(=O)[C@@H]3CCCCN3)cc2)cc1 [Example 20, (2S)-N-[(1S)-1-Cyano-2-[4-[4-(dimethylsulfamoyl)phenyl]phenyl]ethyl]piperidine-2-carboxamide trifluoroacetate]
50.1	N#C[C@H](Cc1ccc(-c2cnoc2)cc1)NC(=O)[C@@H]1CCCCN1 [Example 21, (2S)-N-[(1S)-1-Cyano-2-(4-1,2-oxazol-4-ylphenyl)ethyl]piperidine-2-carboxamide trifluoroacetate]
63.1	CSc1cccc(-c2ccc(C[C@@H](C#N)NC(=O)[C@@H]3CCCCN3)cc2)c1 [Example 22, (2S)-N-[(1S)-1-Cyano-2-[4-(3-methylsulfanylphenyl)phe-nyl]ethyl]piperidine-2-carboxamide trifluoroacetate]
63.1	N#C[C@H](Cc1ccc(-c2ccc(O)cc2)cc1)NC(=O)[C@@H]1CCCCN1 [Example 23, (2S)-N-[(1S)-1-Cyano-2-[4-(4-hydroxyphenyl)phenyl]ethyl]piperidine-2-carboxamide trifluoroacetate]
15.8	N#Cc1ccc(-c2ccc(C[C@@H](C#N)NC(=O)[C@@H]3CCCCN3)cc2)cc1 [Example 24, (2S)-N-[(1S)-1-Cyano-2-[4-(4-cyanophenyl)phenyl]ethyl]piperidine-2-carboxamide trifluoroacetate]
63.1	COc1ccc(-c2ccc(C[C@@H](C#N)NC(=O)[C@@H]3CCCCN3)cc2)cc1 [Example 25, (2S)-N-[(1S)-1-Cyano-2-[4-(4-methoxyphenyl)phenyl]ethyl]piperidine-2-carboxamide trifluoroacetate]
63.1	Cn1cc(-c2ccc(C[C@@H](C#N)NC(=O)[C@@H]3CCCCN3)cc2)cn1 [Example 26, (2S)-N-[(1S)-1-Cyano-2-[4-(1-methylpyrazol-4-yl)phenyl]ethyl]piperidine-2-carboxamide trifluoroacetate]
63.1	N#C[C@H](Cc1ccc(-c2ccc(CCCO)cc2)cc1)NC(=O)[C@@H]1CCCCN1 [Example 27, (2S)-N-[(1S)-1-Cyano-2-[4-[4-(3-hydroxypropyl)phenyl]phenyl]ethyl]piperidine-2-carboxamide trifluoroacetate]
100	N#C[C@H](Cc1ccc(-c2ccc3c(c2)OCO3)cc1)NC(=O)[C@@H]1CCCCN1 [Example 28, (2S)-N-[(1S)-2-(4-Benzo[1,3]dioxol-5-ylphenyl)-1-cyano-ethyl]piperidine-2-carboxamide trifluoroacetate]
100	N#C[C@H](Cc1ccc(-c2ccc(F)c(F)c2)cc1)NC(=O)[C@@H]1CCCCN1 [Example 29, (2S)-N-[(1S)-1-Cyano-2-[4-(3,4-difluorophenyl)phenyl]ethyl]piperidine-2-carboxamide trifluoroacetate]
100	N#C[C@H](Cc1ccc(-c2ccc(F)cc2OCc2ccccc2)cc1)NC(=O)[C@@H]1CCCCN1 [Example 30, (2S)-N-[(1S)-1-Cyano-2-[4-(4-fluoro-2-phenylmethoxy-phenyl)phenyl]ethyl]pipe-ridine-2-carboxamide trifluoroacetate]
158	COc1ccc(-c2ccc(C[C@@H](C#N)NC(=O)[C@@H]3CCCCN3)cc2)cc1F [Example 31, (2S)-N-[(1S)-1-Cyano-2-[4-(3-fluoro-4-methoxy-phenyl)phenyl]ethyl]pipe-ridine-2-carboxamide trifluoroacetate]
